According to PMC4488288, “Inhibition of the Inositol Kinase Itpkb Augments Calcium Signaling in Lymphocytes and Reveals a Novel Strategy to Treat Autoimmune Disease” (PLoS ONE, 2015):

Molecular target: T1, Itpkb (inositol trisphosphate 3' kinase B) (Mus musculus, UniProt B2RXC2)
T1 sequence (B2RXC2 1-942): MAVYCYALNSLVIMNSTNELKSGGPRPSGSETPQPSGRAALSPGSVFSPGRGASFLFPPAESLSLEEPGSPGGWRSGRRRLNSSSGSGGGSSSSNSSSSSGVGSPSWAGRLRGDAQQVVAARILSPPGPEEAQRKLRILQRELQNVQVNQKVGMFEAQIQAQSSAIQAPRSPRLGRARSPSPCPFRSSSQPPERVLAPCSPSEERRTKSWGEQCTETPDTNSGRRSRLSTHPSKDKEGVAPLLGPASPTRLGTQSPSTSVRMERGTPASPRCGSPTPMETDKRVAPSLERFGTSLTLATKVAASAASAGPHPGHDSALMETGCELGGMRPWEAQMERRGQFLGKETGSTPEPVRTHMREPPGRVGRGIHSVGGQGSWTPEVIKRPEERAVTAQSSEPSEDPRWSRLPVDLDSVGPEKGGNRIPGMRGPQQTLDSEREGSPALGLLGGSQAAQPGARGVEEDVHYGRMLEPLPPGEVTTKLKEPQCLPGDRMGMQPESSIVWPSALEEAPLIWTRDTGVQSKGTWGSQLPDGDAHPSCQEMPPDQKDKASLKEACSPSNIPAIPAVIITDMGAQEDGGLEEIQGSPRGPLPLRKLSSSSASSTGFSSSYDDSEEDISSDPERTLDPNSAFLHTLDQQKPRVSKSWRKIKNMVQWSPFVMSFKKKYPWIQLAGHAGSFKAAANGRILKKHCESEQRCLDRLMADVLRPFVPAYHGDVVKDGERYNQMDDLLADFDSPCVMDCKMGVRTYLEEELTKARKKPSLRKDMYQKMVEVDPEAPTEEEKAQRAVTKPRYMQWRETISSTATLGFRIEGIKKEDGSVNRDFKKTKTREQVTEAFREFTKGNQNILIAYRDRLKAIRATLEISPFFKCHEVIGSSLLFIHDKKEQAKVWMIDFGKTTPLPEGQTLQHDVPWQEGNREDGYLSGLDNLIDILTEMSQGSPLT
Assay: Kinase-Glo assay with purified Itpkb ([…] Itpkb, […] ATP, […] IP3)
Type: biochemical

Q: With GNF362 as the substance, how does the IC50 read?
A: The IC50 was 9 nM.
